Measured values taken from US7198958B2, “Method for increasing hydrophilicity of fluorescent label compounds” (Arctic Diagnostics Oy, priority 2001, dated 2007).

Assays:
Format in all cases: physicochemical
mouse IgG anti-AFP [1] = experiment: Labelling of mouse IgG anti-AFP with rhodamine 6G labels; absorption spectrum of the conjugate; conditions: for normal absorption band of labelled mouse IgG anti-AFP: absorption spectrum of IgG conjugate in phosphate buffered saline pH 7.4; for additional absorption band of labelled mouse IgG anti-AFP (non-fluorescent aggregates, hydrophobic interactions): absorption spectrum of IgG conjugate, equi-intense band, absent in excitation spectrum
Protocol: To the solution of 0.28 mg (1.75 nmol) of mouse IgG anti-AFP in 200 μl phosphate buffered saline (10/150 mM, pH 7.4) a 10 fold excess (17.5 nmol) of 5-carboxyrhodamine 6G succinimidyl ester (compound 15, Molecular Probes, Eugene, Oreg.) in anhydrous N,N-dimethylformamide or a 20 fold excess of Glu-Tau-succinimide derivative of 5-carboxyrhodamine 6G in acetonitrile water (reaction mixture of example 14, compound 17) was added. 40 μl of NaHCO3 (1 M, aq) was added and the mixtures were incubated at room temperature for 2 h. The products were purified with NAP-5 gel filtration column (Amersham Pharmacia Biotech, Uppsala, Sweden) using phosphate buffered saline (50/150, 10 mM NaN3, pH 7.4) as eluent. The fast moving coloured fractions were collected.
This additional absorption originates from hydrophobic interactions between the fluorophores and protein or between the two fluorophores. […] These non-fluorescent aggregates are typical for hydrophobic xanthene-type dyes (rhodamines and fluoresceins).

mouse IgG anti-AFP [2] = experiment: Labelling of mouse IgG anti-AFP with dipyrrometheneboron difluoride dyes; conditions: 10 fold excess of label, phosphate buffered saline pH 7.4, room temperature 2 h
Protocol: To the solution of 1.5 mg (9.3 nmol) of mouse IgG anti-AFP in 400 μl phosphate buffered saline (10/150 mM, pH 7.4) a 10 fold excess (93 nmol) of compound 2, 4, 5 or 6 in anhydrous N,N-dimethylformamide was added. 40 μl of NaHCO3 (1 M, aq) was added and the mixture was incubated at room temperature for 2 h. The products were purified with NAP-5 gel filtration column (Amersham Pharmacia Biotech, Uppsala, Sweden) using phosphate buffered saline (50/150, 10 mM NaN3, pH 7.4) as eluent. The fast moving coloured fractions were collected. […] The labelling degrees of these protein conjugates (compound 4 and 6) were determined spectrophotometrically. Labelling degrees of 2.1 (compound 4) and 2.3 (compound 6) fluorophores per protein were obtained.

[3] = test system: 5′-aminomodified oligonucleotide; experiment: Labelling of oligonucleotide; fluorescence yield of labelled oligonucleotide; conditions: labelled oligonucleotides diluted to equimolar concentrations
Protocol: To the solution of 5′-aminomodified oligonucleotide (17 bases, 28 μg, 5 nmol) in carbonate buffer (200 μl, 100 mM, pH 8.5) a 40 fold excess of labelling reagent (compound 2 or 4) in anhydrous DMF (50 μl) was added. Reaction mixture was incubated at 22° C. for 20 h. The labelled oligonucleotides were purifed by using reverse phase HPLC (RP-18 column) and gradient elution technique. Solvents were A: 2% acetonitrile in triethylammonium acetate buffer (50 mM, pH 7) and B: 70% acetonitrile in triethylammonium acetate buffer (50 mM, pH 7). The gradient started from 5% of solvent B and the amount of solvent B linearly raised to 40% in 25 minutes. Both dye-oligonucleotide conjugates (labelled with compound 2 or with compound 4) eluted between 18 to 22 minutes while the unlabelled oligonucleotide eluted at a timepoint of 10 minutes. The unbound labelling reagent was removed from the column by increasing the amount of solvent B to 100%.
The concentrations of the labelled oligonucleotides were determined spectrophotometrically. […] The labelled oligonucleotides were diluted to equimolar concentrations and the fluorescence yields were determined. […] The higher fluorescence yield of the oligonucleotide labelled with compound 4 can be explained by increased hydrophilicity of the label compound and increased distance between the label and the oligonucleotide.

normal absorption band of labelled mouse IgG anti-AFP (mouse IgG anti-AFP [1]) [nm] | additional absorption band of labelled mouse IgG anti-AFP (non-fluorescent aggregates, hydrophobic interactions) (mouse IgG anti-AFP [1]) | fluorescence yield of labelled oligonucleotide compared with oligonucleotide labelled with compound 2 [3] | Molecule | precipitation of the labelled proteins on labelling (mouse IgG anti-AFP [2])
530 | 504 nm |  | CCN=c1cc2oc3cc(NCC)c(C)cc3c(-c3ccc(C(=O)ON4C(=O)CCC4=O)cc3C(=O)O)c-2cc1C [compound 15, 5-carboxyrhodamine 6G succinimidyl ester, reference compound] | 
 |  |  | 4,4-difluoro-(2-pyrrolyl)-1,3-dimethyl-4-bora-3a,4a-diaza-s-indacene-2-propionic acid succinimidyl ester [compound 5, reference compound] | almost complete precipitation of the labelled proteins
 |  |  | Glu-Tau-succinimide derivative of 4,4-difluoro-5-(2-pyrrolyl)-1,3-dimethyl-4-bora-3a,4a-diaza-s-indacene-2-propionic acid [compound 6] | proceeded without any problems
 |  | one order of magnitude higher | Glu-Tau-succinimide derivative of 4,4-difluoro-5-(2-thienyl)-1,3-dimethyl-4-bora-3a,4a-diaza-s-indacene-2-propionic acid [compound 4] | proceeded without any problems
530 | absence of additional absorption band |  | Glu-Tau-succinimide derivative of 5-carboxyrhodamine 6G [compound 17] | 
 |  |  | 4,4-difluoro-5-(2-thienyl)-1,3-dimethyl-4-bora-3a,4a-diaza-s-indacene-2-propionic acid succinimidyl ester [compound 2, reference compound] | almost complete precipitation of the labelled proteins
